Source: patent US20240226211A9, “SEAWEED EXTRACTS, ISOLATED COMPOUNDS, AND METHODS OF TREATMENT” (University of Florida Research Foundation, Incorporated, priority 2017, published 2024)

Columns and labels:
[1] = test system: ARE-luciferase reporter (human NQO1-ARE) in IMR-32 cells; test: ARE-luc reporter assay in IMR-32 cells; format: cell-based; conditions: relative to Compounds 1 and 2; assay not specified
Text: The ARE-luciferase reporter construct (ARE-luc) contains the core sequence of human NQO1-ARE1. The mock plasmid (pcDNA3-mRFP) was purchased from Addgene (plasmid 13032). The following plasmids were reported by Zhang et a/.2003 [Zhang, D. D., and Hannink, M. (2003) Distinct cysteine residues in Keap1 are required for Keap1-dependent ubiquitination of Nrf2 and for stabilization of Nrf2 by chemopreventive agents and oxidative stress. Mol. Cell. Biol. 23, 8137-8151]. The Keap1-CBD plasmid carries the entire open reading frame (ORF) of human Keap1 fused to the chitin binding domain (CBD) of the Bacillus circulans chitinase A1 gene upstream of the Keap1 stop codon. Oligonucleotide-directed mutagenesis was used to generate the Keap1-C151S-CBD and Keap1-C288S-CBD plasmids. The HA-Cul3 plasmid was constructed by fusing an N-terminal hemagglutinin (HA) tag with a cDNA sequence coding for amino acids 1-380 of human Cul3 gene. The Gal4-Neh2 expression vector contains the codons for the first 97 amino acids (Neh2 domain) of human Nrf2 fused to the ORF of the Gal4 DNA-binding domain
An ARE-luciferase reporter plasmid and CMV-GFP plasmid (to monitor transfection efficiency) were co-transfected into a human androgen-sensitive prostate cancer cell line, LNCaP (6×10^4 cells/well), and a human neuroblastoma cell line, IMR-32 (3×10^4 cells/well), using Fugene® HD (Roche Diagnostics) in 96-well format. […] J Biol Chem. 2002; 277:388-394; Lee J M, Hanson J M, Chu W A, Johnson J A. Phosphatidylinositol 3-kinase, not extracellular signal-regulated kinase, regulates activation of the antioxidant-responsive element in IMR-32 human neuroblastoma cells. […] After 24 hours of incubation, cells were treated with extracts from Cymopolia barbata, a negative control (DMSO, 1%, v/v), and a positive control ([…] sulforaphane, SF, and tert-butylhydroquinone, tBHQ, respectively.) 24 hours post-treatment, luciferase activity was detected using BriteLite detection reagent (PerkinElmer). […]

[2] = test system: NQO1; test: qPCR of NQO1 transcript in IMR-32 cells; format: cell-based, human; conditions: 12 h
Experimental: The cells were seeded in 6-well format (see immunoblot) and treated with a solvent control (DMSO, 1%, v/v), isolated compounds, or extracts for 12 h. The RNeasy Mini Kit (Qiagen) was used to collect total RNA from cells, while for mouse tissue, TRIzol reagent (Invitrogen) was used. In each case, total RNAs (2 μg) were reverse-transcribed into cDNAs, which were used as templates for TaqMan gene expression assay (Applied Biosystems) and detected using the 7300 Real-Time PCR System (Applied Biosystems). Each qPCR sample was tested in triplicate as a 25 μL total reaction volume (12.5 μL of Taqman 2× universal master mix, 1.25 μL of a 20× TaqMan gene expression assay probe, 1 μL of the above cDNA, and 10.25 μL of RNase-free sterile water). The qPCR method was designed as following: 50° C. for 2 min, 95° C. for 10 min, and 40 cycles of 95° C. for 15 s and 60° C. for 1 min. Endogenous controls used included GAPDH for IMR-32 cells and β-actin to normalize for RAW264.7 cells and mouse tissues.

[3] = biological target: T1, full-length human recombinant KEAP1 (Homo sapiens, UniProt Q14145); test: LC-MS/MS mapping of cysteine adducts on recombinant KEAP1; format: binding; conditions: excess CymQ
T1 construct: cysteine residues of full-length human recombinant KEAP1 in vitro
Text: To obtain a global picture of cysteine modification of Keap1, rather than focusing on known functionally relevant residues, a proteomics approach was utilized, monitoring the effect of activated cymopol (CymQ) on cysteine residues of full-length human recombinant KEAP1 in vitro, similarly as described [Wang R, et al. (2013) In vitro and in vivo characterization of a tunable dual-reactivity probe of the Nrf2-ARE pathway. ACS Chem Biol 8(8):1764-1774; Hur W, et al. (2010) A small-molecule inducer of the antioxidant response element. Chem Biol 17(5):537-547]. Briefly, KEAP1 was treated with excess CymQ and adducts were mapped by LC-MS/MS in three separate experiments (five different conditions) using DTT, chymotrypsin and trypsin as the variables for different sample preparations, in order to capture more potential adducts. The most abundant modification observed was a mass increase of 242, resulting from an addition-elimination reaction of 5 (FIGS. 54 and 55) with loss of bromine, which is unique to CymQ compared with tBQ. Additional representative spectra for different types of tags can be found in SI Appendix, Fig. S4. […] Most ARE activators belong to class 1 of this cysteine code where Cys151 is readily modified, although contradictory results are shown for these compounds based on the experimental conditions used. […]

[4] = format: physicochemical
Experimental: Silver oxide (14.2 mg) was added to a solution of cymopol 1 (6.6 mg) in dichloromethane (2.5 mL). The reaction mixture was stirred at room temperature for 15 min before being evaporated in vacuum. The crude product was purified by preparative TLC plate (ethyl acetate/hexane 1:4, v/v, Rf 0.8) to give 4.92 mg product 5 (75% yield).

T1 sequence (Q14145 whole entry): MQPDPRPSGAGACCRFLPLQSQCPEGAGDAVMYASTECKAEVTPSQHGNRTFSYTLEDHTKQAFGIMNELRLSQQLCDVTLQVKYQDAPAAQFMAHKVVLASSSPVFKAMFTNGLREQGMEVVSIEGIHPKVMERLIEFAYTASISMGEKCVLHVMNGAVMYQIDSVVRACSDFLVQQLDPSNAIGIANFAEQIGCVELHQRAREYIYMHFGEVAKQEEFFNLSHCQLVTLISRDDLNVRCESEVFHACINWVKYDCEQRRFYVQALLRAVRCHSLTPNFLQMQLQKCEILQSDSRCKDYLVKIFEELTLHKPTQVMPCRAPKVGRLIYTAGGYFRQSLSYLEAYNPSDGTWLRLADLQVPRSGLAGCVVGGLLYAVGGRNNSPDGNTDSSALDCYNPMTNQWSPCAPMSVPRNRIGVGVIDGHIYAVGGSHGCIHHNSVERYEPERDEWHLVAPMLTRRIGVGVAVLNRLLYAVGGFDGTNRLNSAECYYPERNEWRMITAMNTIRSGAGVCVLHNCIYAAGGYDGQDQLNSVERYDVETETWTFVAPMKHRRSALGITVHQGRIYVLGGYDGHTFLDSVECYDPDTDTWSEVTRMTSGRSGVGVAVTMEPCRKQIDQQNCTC

## CC12CCC(Br)C(C)(C)C1Cc1cc(O)c(Br)cc1O2 (stereo not drawn) [Compound 3, 2,6-dibromo-1,1,4a-trimethyl-2,3,4,4a,9,9a-hexahydro-1H-xanthen-7-ol]
[1]
  anti-oxidant efficacy: reduced anti-oxidant efficacy

## C=C1CCC(Br)C(C)(C)C1Cc1cc(OC)c(Br)cc1O (stereo not drawn) [Compound 4, 5-bromo-2-((3-bromo-2,2-dimethyl-6-methylenecyclohexyl)methyl)-4-methoxyphenol]
[1]
  anti-oxidant efficacy: reduced anti-oxidant efficacy

## cymopol quinone [Compound 5]
[2]
  Nqo1 transcript induction by quinone versus hydroquinone counterpart: retained the bioactivity
[3]
  alkylation of highly reactive cysteines including Cys151: failed to alkylate
  number of KEAP1 cysteines modified: 10
[4]
  stability in air: not stable in air
